In patent US20240051952A1, “HMOX1 INDUCERS” (Mitobridge Inc., priority 2019, published 2024):

What follows are compounds tested on Human Heme Oxygenase-1 (HMOX-1) (assay: ELISA assay to measure human heme oxygenase-1 (HMOX-1) in HepG2 lysate). Details: fold change of human HMOX1 protein levels relative to DMSO control, HepG2.
Format: cell-based
Experimental: Example 143. ELISA Assay to Measure Human Heme Oxygenase-1 (HMOX-1) in HepG2 lysate
Reagents and Technical Notes:
ELISA capture antibody, standard HO-1, detection antibody and streptavidin HRP were supplied in the DuoSet IC Human total HO-1 ELISA from R&D systems (DYC3776-2). The substrate cocktail was KPL LumiGLO reserve Chemiluminescent Substrate (54-71-00). PBS was Corning Cellgro Cell Culture (21-040-CV). 10×PBS+0.05% tween20 (PBST) was from KPL.
All incubations of the plate were at room temperature (20° C.) in a closed drawer.
The ELISA plate was processed manually. All loadings were with a multichannel pipet. Plates were emptied by shaking into the sink and tapping onto paper towels to remove any remaining reagent. Plate washing was accomplished by loading all wells with PBS+0.05% tween20 (PBST) using a squirt bottle, shaking the PBST out and tapping the plate onto paper towels.
Preparation of the ELISA Plate: • 1. anti-HO-1 capture antibody was 1440 μg/ml after reconstitution in PBS. This antibody was diluted to 8 μg/ml in PBS and 50 μl per well was added to a 384 well greiner “lumitrac 200” plate. Incubated overnight. • 2. The plate was emptied and 100 μl PBS+1% BSA added to all wells. Incubated 90 minutes at room temperature.
Preparation of HepG2 Lysate: • 1. Cells were cultured in a 96-well tissue culture plate washed with PBS and then the plate frozen at −70° C. overnight. Plates were allowed to warm to ice temperature in an ice bucket. 20 μl of PBS, 0.5% Triton X100, 1 mM EDTA with 1×HALT™ protease inhibitors was added to each well and the plates incubated on ice for 1 hour. • 2. The lysates were frozen at −20° C. overnight.
Measurement of HMOX1 (“HO-1”) • 1. In a polypropylene 384 well plate, human HO-1(after reconstitution in PBS+0.5% Triton+1 mM EDTA) was serially diluted from 20 ng/ml 2-fold in PBS+0.5% triton-X100, 1 mM EDTA to make a 12-point standard curve including a zero point. • 2. In a polypropylene 96 well plate, HepG2 lysate was diluted 1 to 20 in Diluent #4 from DUOSET kit in which the assay standard is also diluted. • 3. The PBS+1% BSA was emptied from the ELISA plate and 30 μl of all samples and standards were added (duplicates recommended). The plate was incubated 90 minutes. • 4. Emptied plate and washed 4 times with PBST. • 5. Diluted HO-1 detection antibody to 200 ng/ml in PBS+1% BSA and added 30 μl to all wells. Incubated 90 minutes. • 6. Emptied plate and washed 4 times with PBST. • 7. Added 30 μl streptavidin HRP at 1/200 in PBS+1% BSA (stock streptavidin concentration not specified) to all wells. Incubated 30 minutes. • 8. Emptied plate and washed 4 times with PBST. • 9. Diluted Lumiglo reserve reagent two parts buffer to one part lumiglo substrate. Added 30 μl to all wells. Incubated 5 minutes. • 10. Measured chemiluminescence on spectramax M5 using 150 ms integration.
Table 1 below lists EC50 and fold changes of human HMOX1 protein levels relative to DMSO control upon treatment with representative compounds.

Maximum Fold induction | SMILES
10-28 | COCCNC(=O)c1ccc2c(c1)nc(Nc1nc3ccc(OC(F)(F)F)cc3o1)n2C [Example 45, N-(2-methoxyethyl)-1-methyl-2-((6-(trifluoromethoxy)benzo[d]oxazol-2-yl)amino)-1H-benzo[d]imidazole-5-carboxamide]
41-52 | Cl.Cn1c(Nc2nc3ccccc3o2)nc2cc(C(=O)NCCN)ccc21 [Example 18, N-(2-aminoethyl)-2-(benzo[d]oxazol-2-ylamino)-1-methyl-1H-benzo[d]imidazole-5-carboxamide hydrochloride]
31-52 | COCCONC(=O)c1ccc2c(c1)nc(Nc1nc3ccc(C(F)(F)F)cc3o1)n2C [Example 124, N-(2-methoxyethoxy)-1-methyl-2-((6-(trifluoromethyl)benzo[d]oxazol-2-yl)amino)-1H-benzo[d]imidazole-5-carboxamide]
25-29 | Cn1c(Nc2nc3ccc(C(F)(F)F)cc3o2)nc2cc(C(=O)O)ccc21 [Example 31, 1-methyl-2-((6-(trifluoromethyl)benzo[d]oxazol-2-yl)amino)-1H-benzo[d]imidazole-5-carboxylic acid]
71 | Cn1c(Nc2nc3ccc(C4CC4)cc3o2)nc2cc(C(=O)O)ccc21 [Example 115, 2-((6-cyclopropylbenzo[d]oxazol-2-yl)amino)-1-methyl-1H-benzo[d]imidazole-5-carboxylic acid]
19-22 | Cn1c(Nc2nc3cc(F)ccc3o2)nc2cc(C(=O)O)ccc21 [Example 66, 2-((5-fluorobenzo[d]oxazol-2-yl)amino)-1-methyl-1H-benzo[d]imidazole-5-carboxylic acid]
30-57 | Cn1c(Nc2nc3ccc(OC(F)(F)F)cc3o2)nc2cc(C(=O)NC3COC3)ccc21 [Example 51, 1-methyl-N-(oxetan-3-yl)-2-((6-(trifluoromethoxy)benzo[d]oxazol-2-yl)amino)-1H-benzo[d]imidazole-5-carboxamide]
32-38 | COCCNC(=O)c1ccc2c(c1)nc(Nc1nc3ccc(C4CC4)cc3o1)n2C [Example 116, 2-((6-cyclopropylbenzo[d]oxazol-2-yl)amino)-N-(2-methoxyethyl)-1-methyl-1H-benzo[d]imidazole-5-carboxamide]
20 | Cn1c(Nc2nc3ccc(C(F)(F)F)nc3o2)nc2cc(C(=O)NCCO)ccc21 [Example 113, N-(2-hydroxyethyl)-1-methyl-2-((5-(trifluoromethyl)oxazolo[5,4-b]pyridin-2-yl)amino)-1H-benzo[d]imidazole-5-carboxamide]
60 | Cn1c(Nc2nc3cccnc3o2)nc2cc(C(=O)NCCO)ccc21 [Example 110, N-(2-hydroxyethyl)-1-methyl-2-(oxazolo[5,4-b]pyridin-2-ylamino)-1H-benzo[d]imidazole-5-carboxamide]
12-20 | COc1ccc2nc(Nc3nc4cc(C(=O)NCCO)ccc4n3C)oc2c1 [Example 92, N-(2-hydroxyethyl)-2-((6-methoxybenzo[d]oxazol-2-yl)amino)-1-methyl-1H-benzo[d]imidazole-5-carboxamide]
10 (n = 2) | O=C(O)c1ccc2c(c1)nc(Nc1nc3ccc(OC(F)(F)F)cc3s1)n2C1CCOCC1 [Example 2d, 1-(tetrahydro-2H-pyran-4-yl)-2-((6-(trifluoromethoxy)benzo[d]thiazol-2-yl)amino)-1H-benzo[d]imidazole-5-carboxylic acid]
27-36 | COCCONC(=O)c1ccc2c(c1)nc(Nc1nc3ccc(OC(F)(F)F)cc3o1)n2C [Example 127, N-(2-methoxyethoxy)-1-methyl-2-((6-(trifluoromethoxy)benzo[d]oxazol-2-yl)amino)-1H-benzo[d]imidazole-5-carboxamide]
17 | Cn1c(Nc2nc3ccc(C(C)(C)O)cc3o2)nc2cc(C(=O)NCCO)ccc21 [Example 133, N-(2-hydroxyethyl)-2-((6-(2-hydroxypropan-2-yl)benzo[d]oxazol-2-yl)amino)-1-methyl-1H-benzo[d]imidazole-5-carboxamide]
42 | Cn1c(Nc2nc3ccc(C(F)(F)F)cc3o2)nc2cc(C(=O)NCCN3CCCC3)ccc21 [Example 36, 1-methyl-N-(2-(pyrrolidin-1-yl)ethyl)-2-((6-(trifluoromethyl)benzo[d]oxazol-2-yl)amino)-1H-benzo[d]imidazole-5-carboxamide]
8-11 | Cn1c(Nc2nc3ccc(OC(F)(F)F)cc3o2)nc2cc(C(=O)O)c(F)cc21 [Example 70, 6-fluoro-1-methyl-2-((6-(trifluoromethoxy)benzo[d]oxazol-2-yl)amino)-1H-benzo[d]imidazole-5-carboxylic acid]
7-12 | COCCNC(=O)c1ccc2c(c1)nc(Nc1nc3c(s1)CCCC3)n2C [Example 5, N-(2-methoxyethyl)-1-methyl-2-((4,5,6,7-tetrahydrobenzo[d]thiazol-2-yl)amino)-1H-benzo[d]imidazole-5-carboxamide]
20-33 | COCCNC(=O)c1ccc2c(c1)nc(Nc1nc3ccc(OC(F)(F)F)cc3s1)n2C1CCOCC1 [Example 2e, N-(2-methoxyethyl)-1-(tetrahydro-2H-pyran-4-yl)-2-((6-(trifluoromethoxy)benzo[d]thiazol-2-yl)amino)-1H-benzo[d]imidazole-5-carboxamide]
41 | Cn1c(Nc2nc3ccccc3o2)nc2cc(C(=O)NCCN3CCCC3)ccc21 [Example 28, 2-(benzo[d]oxazol-2-ylamino)-1-methyl-N-(2-(pyrrolidin-1-yl)ethyl)-1H-benzo[d]imidazole-5-carboxamide]
35-62 | CC1CCc2nc(Nc3nc4cc(C(=O)NOCCO)ccc4n3C)sc2C1 (stereo not drawn) [Example 131, N-(2-hydroxyethoxy)-1-methyl-2-((6-methyl-4,5,6,7-tetrahydrobenzo[d]thiazol-2-yl)amino)-1H-benzo[d]imidazole-5-carboxamide]
27-28 | COCCn1c(Nc2nc3ccc(OC(F)(F)F)cc3o2)nc2cc(C(=O)O)ccc21 [Example 77, 1-(2-methoxyethyl)-2-((6-(trifluoromethoxy)benzo[d]oxazol-2-yl)amino)-1H-benzo[d]imidazole-5-carboxylic acid]
27 | Cn1c(Nc2nc3ccc(OC(F)(F)F)cc3o2)nc2cc(C(=O)NCC3(O)COC3)ccc21 [Example 52, N-((3-hydroxyoxetan-3-yl)methyl)-1-methyl-2-((6-(trifluoromethoxy)benzo[d]oxazol-2-yl)amino)-1H-benzo[d]imidazole-5-carboxamide]
2 | CC(=O)N1CCc2nc(Nc3nc4cc(C(=O)NCCOCCO)ccc4n3C)sc2C1 [Example 10, 2-((5-acetyl-4,5,6,7-tetrahydrothiazolo[5,4-c]pyridin-2-yl)amino)-N-(2-(2-hydroxyethoxy)ethyl)-1-methyl-1H-benzo[d]imidazole-5-carboxamide]
6 | Cn1c(Nc2nc3ccc(OCCO)cc3o2)nc2cc(C(=O)NCCNC3=NCCN3)ccc21 [Example 106, N-(2-((4,5-dihydro-1H-imidazol-2-yl)amino)ethyl)-2-((6-(2-hydroxyethoxy)benzo[d]oxazol-2-yl)amino)-1-methyl-1H-benzo[d]imidazole-5-carboxamide]
15 | COCCNC(=O)c1ccc2c(c1)nc(Nc1nc3ncccc3o1)n2C [Example 112, N-(2-methoxyethyl)-1-methyl-2-(oxazolo[4,5-b]pyridin-2-ylamino)-1H-benzo[d]imidazole-5-carboxamide]
29-38 | Cn1c(Nc2nc3ccc(OC(F)(F)F)cc3o2)nc2cc(C(=O)NCCO)ccc21 [Example 53, N-(2-hydroxyethyl)-1-methyl-2-((6-(trifluoromethoxy)benzo[d]oxazol-2-yl)amino)-1H-benzo[d]imidazole-5-carboxamide]

Same assay, conditions: human HMOX1 protein in HepG2 lysate, ELISA; * = average of 2 or more EC50 determinations; NA = Not Active

EC50 [nM] | SMILES
1300 | COCCNC(=O)c1ccc2c(c1)nc(Nc1nc3c(s1)CCCC3)n2C [Example 5, N-(2-methoxyethyl)-1-methyl-2-((4,5,6,7-tetrahydrobenzo[d]thiazol-2-yl)amino)-1H-benzo[d]imidazole-5-carboxamide]
